Reference: patent US20260297080A1, “BICYCLIC COMPOUNDS AS CDK INHIBITORS” (BeOne Medicines I GmbH, priority 2022, published 2026)

Tests used:
CDK1/Cyclin B1 = CDK1/Cyclin B1 (Homo sapiens, UniProt P06493); experiment: CDK1/Cyclin B1 Biochemical Assay (TR-FRET), 0.015 mM ATP; conditions: 0.15 μM Rb (Ser780)-biotin substrate, pH7.0, 60 min preincubation, 120 min reaction, room temperature
Procedure, shortened: (§1)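 IC50 was from a four-parameter logistic fit of the 665/620 nm TR-FRET ratio (Eu anti-pRb Ser780 mAb, streptavidin-XL665). Compound (0-10 μM) was preincubated 60 min with enzyme, then reacted 120 min at room temperature with 0.15 μM biotinylated Rb (Ser780) peptide. ATP was 0.015 mM for CDK1/Cyclin B1 and 0.060 mM for CDK2/Cyclin E1; buffer was HEPES pH7.0.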

CDK2/Cyclin E1 = CDK2/Cyclin E1 (Homo sapiens, UniProt P24941); experiment: CDK2/Cyclin E1 Biochemical Assay (TR-FRET), 0.060 mM ATP; conditions: 0.15 μM Rb (Ser780)-biotin substrate, pH7.0, 60 min preincubation, 120 min reaction, room temperature
Procedure, shortened: as §1

CDK1/Cyclin B1, sequence (P06493 whole entry): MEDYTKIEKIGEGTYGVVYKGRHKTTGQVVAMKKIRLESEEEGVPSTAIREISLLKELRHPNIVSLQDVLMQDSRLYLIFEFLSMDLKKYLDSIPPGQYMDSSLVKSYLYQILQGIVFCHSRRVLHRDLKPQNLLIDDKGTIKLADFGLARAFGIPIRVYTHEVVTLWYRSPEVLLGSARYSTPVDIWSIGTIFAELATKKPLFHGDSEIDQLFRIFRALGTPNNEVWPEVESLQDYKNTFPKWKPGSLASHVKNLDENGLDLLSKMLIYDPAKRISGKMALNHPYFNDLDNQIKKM
CDK1/Cyclin B1, sequence (P14635 whole entry partner): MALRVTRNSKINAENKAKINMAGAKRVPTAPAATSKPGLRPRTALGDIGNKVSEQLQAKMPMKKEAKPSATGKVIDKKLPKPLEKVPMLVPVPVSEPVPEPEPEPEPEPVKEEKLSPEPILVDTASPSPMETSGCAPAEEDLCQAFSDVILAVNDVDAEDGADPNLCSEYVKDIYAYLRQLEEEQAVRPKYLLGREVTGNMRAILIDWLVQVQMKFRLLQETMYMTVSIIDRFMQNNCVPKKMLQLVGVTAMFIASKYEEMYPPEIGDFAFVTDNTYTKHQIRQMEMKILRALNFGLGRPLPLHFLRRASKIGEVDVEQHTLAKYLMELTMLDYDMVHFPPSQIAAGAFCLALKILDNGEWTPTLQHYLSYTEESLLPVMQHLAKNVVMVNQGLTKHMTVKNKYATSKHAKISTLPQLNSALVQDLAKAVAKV

In the case of `O=C(NC1(CO)CCC1)O[C@H]1CC[C@@H](c2cc(Nc3cc4c(cc3F)NS(=O)(=O)C4)n[nH]2)C1` (relative stereo) [Example 408, cis-3-(3-((6-fluoro-2,2-dioxido-1,3-dihydrobenzo[c]isothiazol-5-yl)amino)-1H-pyrazol-5-yl)cyclopentyl(1-(hydroxymethyl)cyclobutyl)carbamate], the IC50 (CDK1/Cyclin B1) is reported as 1100 nM and the IC50 (CDK2/Cyclin E1) is reported as 35 nM.

With `CC1NS(=O)(=O)c2ccc(Nc3cc([C@@H]4CC[C@H](OC(=O)NC5(C)CC5)C4)[nH]n3)c(F)c21` (single isomer, unassigned) [Example 52a, cis-3-(3-((4-fluoro-3-methyl-1,1-dioxido-2,3-dihydrobenzo[d]isothiazol-5-yl)amino)-1H-pyrazol-5-yl)cyclopentyl(1-methylcyclopropyl)carbamate] the IC50 (CDK1/Cyclin B1) was 274 nM and the IC50 (CDK2/Cyclin E1) was 3.5 nM.

`CC1(NC(=O)O[C@H]2CC[C@@H](c3cc(Nc4ccc5c(c4F)CN(CCO)S5(=O)=O)n[nH]3)C2)CC1` (racemic) [Example 128, cis-3-(3-((4-fluoro-2-(2-hydroxyethyl)-1,1-dioxido-2,3-dihydrobenzo[d]isothiazol-5-yl)amino)-1H-pyrazol-5-yl)cyclopentyl(1-methylcyclopropyl)carbamate] was tested, and the IC50 (CDK1/Cyclin B1) was 98 nM and the IC50 (CDK2/Cyclin E1) was 1.8 nM.

`CC[C@H](C)NC(=O)O[C@H]1CC[C@@H](c2cc(Nc3cc4c(cc3F)NS(=O)(=O)C4)n[nH]2)C1` (relative stereo) [Example 294, cis-3-(3-((6-fluoro-2,2-dioxido-1,3-dihydrobenzo[c]isothiazol-5-yl)amino)-1H-pyrazol-5-yl)cyclopentyl((S)-sec-butyl)carbamate] was tested, and the IC50 (CDK1/Cyclin B1) was 359 nM and the IC50 (CDK2/Cyclin E1) was 15 nM.

`CC(C)NC(=O)O[C@@H]1CC[C@H](c2cc(Nc3ccc4c(c3F)CS(=O)(=O)N4)n[nH]2)C1` (single isomer, unassigned) [Example 251a] gave an IC50 (CDK1/Cyclin B1) of 74 nM and an IC50 (CDK2/Cyclin E1) of 1.1 nM.

For `CC(C)(C)NC(=O)O[C@@H]1CC[C@H](c2cc(Nc3ccc4c(c3)CS(=O)(=O)N4)n[nH]2)C1` [Example 403a], the IC50 (CDK1/Cyclin B1) was 10 nM and the IC50 (CDK2/Cyclin E1) was 1 nM.

Molecule `CC(C)NC(=O)O[C@H]1CC[C@@H](c2cc(Nc3ccc4c(c3F)CN(C3CCCN(C)C3)S4(=O)=O)n[nH]2)C1` (relative stereo) [Example 61, cis-3-(3-((4-fluoro-2-(1-methylpiperidin-3-yl)-1,1-dioxido-2,3-dihydrobenzo[d]isothiazol-5-yl)amino)-1H-pyrazol-5-yl)cyclopentyl isopropylcarbamate] has an IC50 (CDK1/Cyclin B1) of 836 nM and an IC50 (CDK2/Cyclin E1) of 10 nM.

In the case of `CC(C)NC(=O)O[C@H]1CC[C@@H](c2cc(Nc3ccc4c(c3)C(C)NS4(=O)=O)n[nH]2)C1` (single isomer, unassigned) [Example 321b, cis-3-(3-((3-methyl-1,1-dioxido-2,3-dihydrobenzo[d]isothiazol-5-yl)amino)-1H-pyrazol-5-yl)cyclopentyl isopropylcarbamate], the IC50 (CDK1/Cyclin B1) is reported as 15 nM and the IC50 (CDK2/Cyclin E1) is reported as 0.6 nM.

With `CC(C)NC(=O)O[C@H]1CC[C@@H](c2cc(Nc3cc(F)c4c(c3)CS(=O)(=O)N4C3COC3)n[nH]2)C1` (relative stereo) [Example 283, cis-3-(3-((7-fluoro-1-(oxetan-3-yl)-2,2-dioxido-1,3-dihydrobenzo[c]isothiazol-5-yl)amino)-1H-pyrazol-5-yl)cyclopentyl isopropylcarbamate] the IC50 (CDK1/Cyclin B1) was 56 nM and the IC50 (CDK2/Cyclin E1) was 3 nM.

`CC1NS(=O)(=O)c2ccc(Nc3cc([C@@H]4CC[C@H](OC(=O)NC5(C)CC5)C4)[nH]n3)c(F)c21` (single isomer, unassigned) [Example 52d, cis-3-(3-((4-fluoro-3-methyl-1,1-dioxido-2,3-dihydrobenzo[d]isothiazol-5-yl)amino)-1H-pyrazol-5-yl)cyclopentyl(1-methylcyclopropyl)carbamate] was tested, and the IC50 (CDK1/Cyclin B1) was 56 nM and the IC50 (CDK2/Cyclin E1) was 1 nM.

For `[2H]C([2H])([2H])N1c2c(F)cc(Nc3cc([C@@H]4CC[C@H](OC(=O)N[C@@H](C)CC)C4)[nH]n3)cc2CS1(=O)=O` (relative stereo) [Example 285, cis-3-(3-((7-fluoro-1-(methyl-d3)-2,2-dioxido-1,3-dihydrobenzo[c]isothiazol-5-yl)amino)-1H-pyrazol-5-yl)cyclopentyl((S)-sec-butyl)carbamate], the IC50 (CDK1/Cyclin B1) was 196 nM and the IC50 (CDK2/Cyclin E1) was 12 nM.

For `CC1(NC(=O)O[C@H]2CC[C@@H](c3cc(Nc4cc5c(cc4F)S(=O)(=O)NC5)n[nH]3)C2)CC1` (single isomer, unassigned) [Example 44a, cis-3-(3-((6-fluoro-1,1-dioxido-2,3-dihydrobenzo[d]isothiazol-5-yl)amino)-1H-pyrazol-5-yl)cyclopentyl(1-methylcyclopropyl)carbamate], the IC50 (CDK1/Cyclin B1) was 138 nM and the IC50 (CDK2/Cyclin E1) was 1.3 nM.

`CC(C)NC(=O)O[C@H]1CC[C@@H](c2cc(Nc3ccc4c(c3)CS(=O)(=O)N4CC3COC3)n[nH]2)C1` (relative stereo) [Example 210, cis-3-(3-((1-(oxetan-3-ylmethyl)-2,2-dioxido-1,3-dihydrobenzo[c]isothiazol-5-yl)amino)-1H-pyrazol-5-yl)cyclopentyl isopropylcarbamate] showed an IC50 (CDK1/Cyclin B1) of 40 nM and an IC50 (CDK2/Cyclin E1) of 2.1 nM.

`CC1(NC(=O)O[C@H]2CC[C@@H](c3cc(Nc4ccc5c(c4)CNS5(=O)=O)n[nH]3)C2)CC1` (relative stereo) [Example 177, cis-3-(3-((1,1-dioxido-2,3-dihydrobenzo[d]isothiazol-5-yl)amino)-1H-pyrazol-5-yl)cyclopentyl(1-methylcyclopropyl)carbamate] showed an IC50 (CDK1/Cyclin B1) of 27 nM and an IC50 (CDK2/Cyclin E1) of 1.1 nM.

`COCC(C)(C)NC(=O)O[C@H]1CC[C@@H](c2cc(Nc3ccc4c(c3F)CN(C)S4(=O)=O)n[nH]2)C1` (relative stereo) [Example 379, cis-3-(3-((4-fluoro-2-methyl-1,1-dioxido-2,3-dihydrobenzo[d]isothiazol-5-yl)amino)-1H-pyrazol-5-yl)cyclopentyl(1-methoxy-2-methylpropan-2-yl)carbamate] gave an IC50 (CDK1/Cyclin B1) of 230 nM and an IC50 (CDK2/Cyclin E1) of 4.5 nM.

With `CC(NC(=O)O[C@H]1CC[C@@H](c2cc(Nc3ccc4c(c3F)CN(C3CC3)S4(=O)=O)n[nH]2)C1)C1COC1` (relative stereo) [Example 357, cis-3-(3-((2-cyclopropyl-4-fluoro-1,1-dioxido-2,3-dihydrobenzo[d]isothiazol-5-yl)amino)-1H-pyrazol-5-yl)cyclopentyl(1-(oxetan-3-yl)ethyl)carbamate] the IC50 (CDK1/Cyclin B1) was 817 nM and the IC50 (CDK2/Cyclin E1) was 23 nM.

`CC(C)NC(=O)O[C@H]1CC[C@@H](c2cc(Nc3ccc4c(c3F)C(=O)NS4(=O)=O)n[nH]2)C1` (relative stereo) [Example 59, cis-3-(3-((4-fluoro-1,1-dioxido-3-oxo-2,3-dihydrobenzo[d]isothiazol-5-yl)amino)-1H-pyrazol-5-yl)cyclopentyl isopropylcarbamate] was tested, and the IC50 (CDK1/Cyclin B1) was 296 nM and the IC50 (CDK2/Cyclin E1) was 5.8 nM.

Work on `CC(C)NC(=O)O[C@H]1CC[C@@H](c2cc(Nc3ccc4c(c3)C(F)(F)S(=O)(=O)N4C)n[nH]2)C1` (relative stereo) [Example 346, cis-3-(3-((3,3-difluoro-1-methyl-2,2-dioxido-1,3-dihydrobenzo[c]isothiazol-5-yl)amino)-1H-pyrazol-5-yl)cyclopentyl isopropylcarbamate] yielded an IC50 (CDK1/Cyclin B1) of 482 nM and an IC50 (CDK2/Cyclin E1) of 31 nM.

With `CC(C)NC(=O)O[C@H]1CC[C@@H](c2cc(Nc3cc4c(cc3F)CS(=O)(=O)N4)n[nH]2)C1` (relative stereo) [Example 310, cis-3-(3-((5-fluoro-2,2-dioxido-1,3-dihydrobenzo[c]isothiazol-6-yl)amino)-1H-pyrazol-5-yl)cyclopentyl isopropylcarbamate] the IC50 (CDK1/Cyclin B1) was 2200 nM and the IC50 (CDK2/Cyclin E1) was 81 nM.

With `CC(NC(=O)O[C@H]1CC[C@@H](c2cc(Nc3ccc4c(c3F)CNS4(=O)=O)n[nH]2)C1)C1COC1` (relative stereo) [Example 147, cis-3-(3-((4-fluoro-1,1-dioxido-2,3-dihydrobenzo[d]isothiazol-5-yl)amino)-1H-pyrazol-5-yl)cyclopentyl(1-(oxetan-3-yl)ethyl)carbamate] the IC50 (CDK1/Cyclin B1) was 606 nM and the IC50 (CDK2/Cyclin E1) was 9.1 nM.

`COCC1(NC(=O)O[C@H]2CC[C@@H](c3cc(Nc4ccc5c(c4F)CNS5(=O)=O)n[nH]3)C2)CC1` (single isomer, unassigned) [Example 158a, cis-3-(3-((4-fluoro-1,1-dioxido-2,3-dihydrobenzo[d]isothiazol-5-yl)amino)-1H-pyrazol-5-yl)cyclopentyl(1-(methoxymethyl)cyclopropyl)carbamate] gave an IC50 (CDK1/Cyclin B1) of 799 nM and an IC50 (CDK2/Cyclin E1) of 5.3 nM.

Work on `CCCNC(=O)O[C@H]1CC[C@@H](c2cc(Nc3ccc4c(c3)CS(=O)(=O)N4)n[nH]2)C1` [Example 195b] yielded an IC50 (CDK1/Cyclin B1) of 67 nM and an IC50 (CDK2/Cyclin E1) of 17 nM.

`CCCNC(=O)O[C@H]1CC[C@@H](c2cc(Nc3ccc4c(c3F)S(=O)(=O)NC4)n[nH]2)C1` (single isomer, unassigned) [Example 189b, cis-3-(3-((7-fluoro-1,1-dioxido-2,3-dihydrobenzo[d]isothiazol-6-yl)amino)-1H-pyrazol-5-yl)cyclopentyl propylcarbamate] was tested, and the IC50 (CDK1/Cyclin B1) was 41 nM and the IC50 (CDK2/Cyclin E1) was 2.7 nM.

`CCCNC(=O)O[C@H]1CC[C@@H](c2cc(Nc3ccc4c(c3F)S(=O)(=O)NC4)n[nH]2)C1` (single isomer, unassigned) [Example 189a, cis-3-(3-((7-fluoro-1,1-dioxido-2,3-dihydrobenzo[d]isothiazol-6-yl)amino)-1H-pyrazol-5-yl)cyclopentyl propylcarbamate] was tested, and the IC50 (CDK1/Cyclin B1) was 350 nM and the IC50 (CDK2/Cyclin E1) was 10 nM.

With `[2H]C([2H])([2H])N1c2c(F)cc(Nc3cc([C@@H]4CC[C@H](OC(=O)NC(C)C)C4)[nH]n3)cc2CS1(=O)=O` (single isomer, unassigned) [Example 289a, cis-3-(3-((7-fluoro-1-(methyl-d3)-2,2-dioxido-1,3-dihydrobenzo[c]isothiazol-5-yl)amino)-1H-pyrazol-5-yl)cyclopentyl isopropylcarbamate] the IC50 (CDK1/Cyclin B1) was 196 nM and the IC50 (CDK2/Cyclin E1) was 10 nM.
